Reference: patent US20250171438A1 (Agios Pharmaceuticals, Inc., priority 2022, published 2025)

These compounds were tested against T1, human PAH with the R408W mutation (Homo sapiens, UniProt P00439, R408W) (assay: Cell Based Phenylalanine Flux Assay). Details: A375 cells expressing human R408W PAH; 24 hrs compound incubation; 13C-Tyrosine by LC-MS; average where tested multiple times; read-out: AC50.
T1 construct: expressed in transfected cells
T1 sequence (P00439 1-452 R408W): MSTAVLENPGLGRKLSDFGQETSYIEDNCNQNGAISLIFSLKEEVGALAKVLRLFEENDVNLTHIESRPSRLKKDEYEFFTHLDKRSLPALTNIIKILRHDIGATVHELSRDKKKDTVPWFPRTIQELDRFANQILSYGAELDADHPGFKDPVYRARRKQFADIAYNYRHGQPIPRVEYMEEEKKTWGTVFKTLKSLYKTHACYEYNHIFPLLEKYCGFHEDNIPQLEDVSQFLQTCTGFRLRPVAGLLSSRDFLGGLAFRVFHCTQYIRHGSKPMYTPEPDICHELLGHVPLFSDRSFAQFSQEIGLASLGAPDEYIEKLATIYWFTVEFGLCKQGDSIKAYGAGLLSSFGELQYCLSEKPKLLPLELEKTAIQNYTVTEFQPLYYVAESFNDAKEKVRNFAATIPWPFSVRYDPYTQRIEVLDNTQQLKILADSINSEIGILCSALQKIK
Description: Compounds were resuspended in DMSO, and 2-fold serial dilutions were performed to generate a 10-point dose curve. Compounds were added to plated cells in a total volume of 100 pal, and a final DMSO concentration of 0.5%. Each compound was tested in duplicate. Following compound addition, cells were placed in a 5% CO2, 37° C. tissue culture incubator for 24 hrs. After the incubation period, 20 μM sepiapterin and 800 μM 13C9,15N-Phenylalanine were added. After 4 hours, cell media was removed. An aliquot of 10 μl of cell media was combined with 200 μl of extraction buffer (80% acetonitrile/20% H2O) for each well. Determination of ^13C-Tyrosine concentration was assessed by liquid chromatography mass spectrometry.
Where a compound was tested multiple times, the average value of the tests is reported.

First: O=C(c1cn(CC2CC2)nc1Cl)N1CCc2[nH]cnc2[C@H]1c1nc2c(F)cccc2s1 [Example 1983, (S)-(3-chloro-1-(cyclopropylmethyl)-1H-pyrazol-4-yl)(4-(4-fluorobenzo[d]thiazol-2-yl)-6,7-dihydro-1H-imidazo[4,5-c]pyridin-5(4H)-yl)methanone]
Second: O=C(c1cnn(C2CC2)c1Cl)N1CCc2[nH]cnc2[C@H]1c1nc2c(F)cccc2s1 [Example 1969]
The AC50 of the first is lower: less than 500 nM for the first, 500 to 1000 nM for the second.

First: CC(C)(F)c1nnc(C(=O)N2CCc3[nH]cnc3[C@@H]2c2nc3c(F)cccc3s2)o1 [Example 1835, (R)-(4-(4-fluorobenzo[d]thiazol-2-yl)-6,7-dihydro-1H-imidazo[4,5-c]pyridin-5(4H)-yl)(5-(2-fluoropropan-2-yl)-1,3,4-oxadiazol-2-yl)methanone]
Second: O=C(c1nnc(C2CC2)o1)N1CCc2[nH]cnc2[C@H]1c1nc2c(F)cccc2s1 [Example 1443]
The AC50 of the first is higher: 1000 to 5000 nM for the first, less than 500 nM for the second.

First: O=C(N1CC(F)C1)N1CCc2[nH]cnc2[C@@H]1c1nc2ccccc2s1 [Example 1690, (R)-(4-(benzo[d]thiazol-2-yl)-6,7-dihydro-1H-imidazo[4,5-c]pyridin-5(4H)-yl)(3-fluoroazetidin-1-yl)methanone]
Second: O=C(CC1CC(F)C1)N1CCc2[nH]cnc2[C@H]1c1nc2ccccc2s1 (stereo partly shown) [Example 1245]
The AC50 of the first is higher: 1000 to 5000 nM for the first, less than 500 nM for the second.

First: O=C(c1oc(-c2ccccn2)nc1C1CC1)N1CCCc2[nH]cnc2[C@@H]1c1nc2ccccc2s1 [Example 2120, (R)-(4-(benzo[d]thiazol-2-yl)-7,8-dihydroimidazo[4,5-c]azepin-5(1H,4H,6H)-yl)(4-cyclopropyl-2-(pyridin-2-yl)oxazol-5-yl)methanone]
Second: O=C(c1oc(-c2ccccn2)nc1Br)N1CCc2[nH]cnc2[C@H]1c1nc2ccccc2s1 [Example 1850]
The AC50 of the first is higher: 1000 to 5000 nM for the first, less than 500 nM for the second.

First: CC(C)(O)c1nc(C#N)c(C(=O)N2CCc3[nH]cnc3[C@@H]2c2nc3ccccc3s2)o1 [Example 1698, (R)-5-(4-(benzo[d]thiazol-2-yl)-4,5,6,7-tetrahydro-1H-imidazo[4,5-c]pyridine-5-carbonyl)-2-(2-hydroxypropan-2-yl)oxazole-4-carbonitrile]
Second: N#Cc1ncoc1C(=O)N1CCc2[nH]cnc2[C@H]1c1nc2ccccc2s1 [Example 1583, (S)-5-(4-(benzo[d]thiazol-2-yl)-4,5,6,7-tetrahydro-1H-imidazo[4,5-c]pyridine-5-carbonyl)oxazole-4-carbonitrile]
The AC50 of the first is higher: greater than 5000 nM for the first, less than 500 nM for the second.

Compared with O=C(c1nnc(-c2ccccc2)o1)N1CCc2[nH]cnc2[C@@H]1c1nc2ccccc2s1 [Example 1418, (R)-(4-(benzo[d]thiazol-2-yl)-6,7-dihydro-1H-imidazo[4,5-c]pyridin-5(4H)-yl)(5-phenyl-1,3,4-oxadiazol-2-yl)methanone], O=C(c1nnc(-c2ccc(F)cc2F)o1)N1CCc2[nH]cnc2[C@H]1c1nc2ccccc2s1 [Example 1811] is lower in AC50: 1000 to 5000 nM for the first, less than 500 nM for the second.

First: O=C(c1nnc(-c2ccccn2)o1)N1CCc2[nH]cnc2[C@@H]1c1nc2cc(F)ccc2s1 [Example 1747, (R)-(4-(5-fluorobenzo[d]thiazol-2-yl)-6,7-dihydro-1H-imidazo[4,5-c]pyridin-5(4H)-yl)(5-(pyridin-2-yl)-1,3,4-oxadiazol-2-yl)methanone]
Second: O=C(c1nnc(-c2ccn(C(F)F)n2)o1)N1CCc2[nH]cnc2[C@H]1c1nc2ccccc2s1 [Example 1873]
The AC50 of the first is higher: 500 to 1000 nM for the first, less than 500 nM for the second.

First: CC(C)n1ncc(C(=O)N2CCc3[nH]cnc3[C@H]2c2nc3c(F)cccc3s2)c1C(F)F [Example 2001, (S)-(5-(difluoromethyl)-1-isopropyl-1H-pyrazol-4-yl)(4-(4-fluorobenzo[d]thiazol-2-yl)-6,7-dihydro-1H-imidazo[4,5-c]pyridin-5(4H)-yl)methanone]
Second: O=C(c1conc1C(F)(F)F)N1CCc2[nH]cnc2[C@@H]1c1nc2c(F)cccc2s1 [Example 1636, (R)-(4-(4-fluorobenzo[d]thiazol-2-yl)-6,7-dihydro-1H-imidazo[4,5-c]pyridin-5(4H)-yl)(3-(trifluoromethyl)isoxazol-4-yl)methanone]
The AC50 of the first is lower: less than 500 nM for the first, 500 to 1000 nM for the second.

Compared with O=C(CCc1nccs1)N1CCc2[nH]cnc2[C@H]1c1nc2cccc(Br)c2s1 [Example 1121, (S)-1-(4-(7-bromobenzo[d]thiazol-2-yl)-6,7-dihydro-1H-imidazo[4,5-c]pyridin-5(4H)-yl)-3-(thiazol-2-yl)propan-1-one], Cc1cnc(CCC(=O)N2CCc3[nH]cnc3[C@@H]2c2nc3ccccc3s2)s1 [Example 1032, (R)-1-(4-(benzo[d]thiazol-2-yl)-6,7-dihydro-1H-imidazo[4,5-c]pyridin-5(4H)-yl)-3-(5-methylthiazol-2-yl)propan-1-one] is higher in AC50: 500 to 1000 nM for the first, greater than 5000 nM for the second.

First: CC[C@@H](O)c1nc(C(F)F)c(C(=O)N2CCc3[nH]cnc3[C@@H]2c2nc3c(F)cccc3s2)o1 [Example 2068, (4-(difluoromethyl)-2-((R)-1-hydroxypropyl)oxazol-5-yl)((R)-4-(4-fluorobenzo[d]thiazol-2-yl)-6,7-dihydro-1H-imidazo[4,5-c]pyridin-5(4H)-yl)methanone]
Second: C[C@H]1CN(C(=O)c2ocnc2C2CC2)[C@@H](c2nc3c(F)cccc3s2)c2nc[nH]c21 [Example 1607, (4-cyclopropyloxazol-5-yl)((4R,7S)-4-(4-fluorobenzo[d]thiazol-2-yl)-7-methyl-6,7-dihydro-1H-imidazo[4,5-c]pyridin-5(4H)-yl)methanone]
The AC50 of the first is lower: 500 to 1000 nM for the first, 1000 to 5000 nM for the second.

Going from Cn1nc(Cl)cc1C(=O)N1CCc2[nH]cnc2[C@H]1c1nc2ccccc2s1 [Example 1923] to Cc1cnc(C(=O)N2CCc3[nH]cnc3[C@@H]2c2nc3ccccc3s2)s1 [Example 1056, (R)-(4-(benzo[d]thiazol-2-yl)-6,7-dihydro-1H-imidazo[4,5-c]pyridin-5(4H)-yl)(5-methylthiazol-2-yl)methanone], the AC50 rises from less than 500 nM to greater than 5000 nM.

First: O=C(C1CC1(F)F)N1CCc2[nH]cnc2[C@@H]1c1nc2ccccc2s1 (single isomer, unassigned) [Example 1285]
Second: O=C(Cc1ncc(C2CC2)s1)N1CCc2[nH]cnc2[C@H]1c1nc2ccccc2s1 [Example 1459]
The AC50 of the first is higher: greater than 5000 nM for the first, 500 to 1000 nM for the second.

Work on CC1(C)CC=C(c2ncc(C(=O)N3CCc4[nH]cnc4[C@@H]3c3nc4ccccc4s3)s2)CC1 [Example 1352, (R)-(4-(benzo[d]thiazol-2-yl)-6,7-dihydro-1H-imidazo[4,5-c]pyridin-5(4H)-yl)(2-(4,4-dimethylcyclohex-1-en-1-yl)thiazol-5-yl)methanone] yielded an AC50 of 1000 to 5000 nM.

Same assay, conditions: A375 cells expressing human R408W PAH; 24 hrs with compound; 13C-Tyrosine by LC-MS; average where tested multiple times; read-out: AC50

Compared with Cc1nnc(C(=O)N2CCc3[nH]cnc3C2c2nc3ccccc3[nH]2)s1 (stereo not shown), O=C(c1nc2ccc(F)cc2s1)N1CCc2[nH]cnc2[C@H]1c1nc2ccccc2[nH]1 [(S)-(4-(1H-benzo[d]imidazol-2-yl)-6,7-dihydro-1H-imidazo[4,5-c]pyridin-5(4H)-yl)(6-fluorobenzo[d]thiazol-2-yl)methanone] is lower in AC50: greater than 5000 nM for the first, 1000 to 5000 nM for the second.

O=C(CCCc1ccc(F)cc1)N1CCc2[nH]cnc2[C@H]1c1nc2ccccc2[nH]1 [(S)-1-(4-(1H-benzo[d]imidazol-2-yl)-1,4,6,7-tetrahydro-5H-imidazo[4,5-c]pyridin-5-yl)-4-(4-fluorophenyl)butan-1-one] and O=C(C1CC1)N1CCc2[nH]cnc2[C@H]1c1nc2ccccc2[nH]1 [(S)-(4-(1H-benzo[d]imidazol-2-yl)-1,4,6,7-tetrahydro-5H-imidazo[4,5-c]pyridin-5-yl)(cyclopropyl)methanone] fall in the same range of AC50: 1000 to 5000 nM for the first, 1000 to 5000 nM for the second.

First: CC1(C)CN(C(=O)c2cnco2)C(c2nc3c(F)cccc3s2)c2nc[nH]c21 (stereo not shown)
Second: O=C(c1cnco1)N1CCc2[nH]cnc2C1c1nc2c(C(F)(F)F)cccc2s1 (stereo not shown)
The AC50 of the first is higher: greater than 5000 nM for the first, 1000 to 5000 nM for the second.

First: CC(C)(O)c1noc(C(=O)N2CCc3[nH]cnc3C2c2nc3c(F)cccc3s2)n1 (stereo not shown)
Second: CC(C)(O)c1cc(C(=O)N2CCc3[nH]cnc3C2c2nc3c(F)cccc3s2)ns1 (stereo not shown)
The AC50 of the first is lower: 1000 to 5000 nM for the first, greater than 5000 nM for the second.

First: Cn1nc(CC#N)nc1C(=O)N1CCc2[nH]cnc2C1c1nc2ccccc2s1 (stereo not shown)
Second: COCc1ncc(C(=O)N2CCc3[nH]cnc3C2c2nc3ccccc3s2)o1 (stereo not shown)
The AC50 of the first is higher: greater than 5000 nM for the first, 1000 to 5000 nM for the second.

Cn1ncc(C(=O)N2CCc3[nH]cnc3C2c2nc3c(C(F)(F)F)cccc3s2)c1Cl (stereo not shown) and N#Cc1nc(NCC(F)(F)F)oc1C(=O)N1CCc2[nH]cnc2C1c1nc2ccccc2s1 (stereo not shown) fall in the same range of AC50: 1000 to 5000 nM for the first, 1000 to 5000 nM for the second.

First: O=C(Cc1cscn1)N1CCc2[nH]cnc2C1c1nc2ccccc2s1 (stereo not shown)
Second: O=C(Cc1nccs1)N1CCc2[nH]cnc2C1c1nc2ccc(F)cc2s1 (stereo not shown)
The AC50 of the first is higher: greater than 5000 nM for the first, 1000 to 5000 nM for the second.

First: O=C(Cc1nccs1)N1CCc2[nH]cnc2C1c1nc2cccc(F)c2s1 (stereo not shown)
Second: O=C(c1nccs1)N1CCc2[nH]cnc2C1c1nc2cccc(F)c2[nH]1 (stereo not shown)
The AC50 of the first is lower: 1000 to 5000 nM for the first, greater than 5000 nM for the second.

First: COCc1ccc2c(C(=O)N3CC4(CC4)c4[nH]cnc4C3c3nc4ccccc4s3)cnn2c1 (stereo not shown)
Second: Cn1cc(-c2cccc(C(=O)N3CCc4[nH]cnc4[C@H]3c3nc4ccccc4s3)c2)cn1 (single isomer, unassigned)
The AC50 of the first is higher: greater than 5000 nM for the first, 1000 to 5000 nM for the second.

NC(=O)c1ncoc1C(=O)N1CCc2[nH]cnc2C1c1nc2ccccc2s1 (stereo not shown) and O=C(c1ncco1)N1CCc2[nH]cnc2C1c1nc2cc(F)ccc2s1 (stereo not shown) fall in the same range of AC50: 1000 to 5000 nM for the first, 1000 to 5000 nM for the second.

With CS(=O)(=O)N1CC(C(=O)N2CCc3[nH]cnc3C2c2nc3ccccc3s2)C1 (stereo not shown) the AC50 was greater than 5000 nM.
